# Results published in publication PMC5594043, “CYP79 P450 monooxygenases in gymnosperms: CYP79A118 is associated with the formation of taxiphyllin in Taxus baccata” (Plant Molecular Biology, 2017).
# Target: T1, CYP79A118 full-length (CYP79A118-M1) (Taxus baccata, UniProt A0A288W866)
# T1 construct: full-length ORF; yeast WAT11 microsomes with Arabidopsis CPR1; pESC-Leu2d
# Format: biochemical
# Conditions: 1 mM substrate; NADPH 1 mM; Arabidopsis CPR1 in microsomes; 75 mM sodium phosphate pH 7.0; 25 °C; product indole-3-acetaldoxime
structure (smiles),measurement,value
"N[C@@H](Cc1c[nH]c2ccccc12)C(=O)O [Trp, L-tryptophan]","LC-MS/MS of aldoxime product, yeast microsomes",the full-length protein as well as the truncated version showed enzymatic activity with the aromatic
